In patent publication US12479843B2, “Spiro ring-containing quinazoline compounds” (WIGEN BIOMEDICINE TECHNOLOGY (SHANGHAI) CO., LTD., priority 2019, dated 2025):
pIC50: −log10 of the molar value. Like-named read-outs stand apart in the source and are kept apart here.

What was measured:
pERK level in H358 cells = experiment: pERK and ERK protein content assay in H358 cells (ELISA); format: cell-based; details: 24 h, pERK/ERK ratio compared with DMSO group; for inhibition at 1 µM: Homo sapiens, NCI-H358, compound 1 μM, read-out: Inhibition rate (%) of pERK level
Procedure, shortened: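 H358 cells grown one day, then treated 24 h with compound at 1 μM. pERK and ERK in lysates measured by ELISA; pERK/ERK ratio expressed as percent inhibition versus DMSO.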

H358 cells = experiment: Antiproliferative activity against H358 cells (Cell Titer Glow, ultra-low attachment plate); format: cell-based; details: three days after addition of compound
Procedure: 2500 H358 cells were seeded in a 96-well ultra-low attachment plate (corning, 7007). After one day of growth, a serially diluted compound (a maximum concentration of 5 μM, 5-fold dilution, a total of five doses) was added. Three days after the addition of the compound, Cell Titer Glow (Promega, G9681) was added to evaluate pellet growth, and the IC50 value was calculated.

[1] = Pharmacokinetic evaluation in mice; format: in vivo, male ICR mice; details: for Vd: read-out: Vss; for F: po 10 mg/kg vs iv 2 mg/kg
Procedure: The compounds were administered by intravenous injection at a dose of 2 mg/kg and oral gavage at a dose of 10 mg/kg (0.5% CMC-Na suspension). 15 male ICR mice were selected for each group, and each mouse was subjected to blood collection at 3 discrete time points, with 3 mice per time point. The time points of sampling were as follows: before the administration, and at 5 min, 15 min, 30 min, 1 h, 3 h, 5 h, 8 h, 12 h and 24 h after the administration. 80 μL of blood was collected from the eye sockets or the hearts of the mice at each of the time points after the administration. All whole blood samples were collected in tubes containing EDTA K2 and centrifuged (1500-1600 rmp) at 4° C. for 10 min to isolate plasma, which was then stored in a refrigerator at −90 to −60° C. for sample analysis. The compound concentration in the plasma was determined by liquid chromatography-tandem mass spectrometry, and the corresponding pharmacokinetic parameters were obtained according to a plasma concentration-time curve.

[2] = tested on: Human pancreatic cancer Mia PaCa-2 cells; experiment: Antitumor activity on graft tumors of human pancreatic cancer Mia PaCa-2 in nude mice; format: in vivo; details: Mia PaCa-2 graft tumors in nude mice, 10 mg/kg intragastric, qd*21
Procedure: Human pancreatic cancer Mia PaCa-2 cells were cultured conventionally in 1640 medium containing 10% fetal bovine serum in a 37° C./5% CO2 incubator. After passage, the cells were collected when they reached the desired amount. 1×10^7 Mia PaCa-2 cells were injected into the left dorsal side of each nude mouse, and the animals were randomly grouped for administration after tumors grew to 150 mm3. The groups are as follows: 1) a solvent control group of 8 mice; and 2) compound 1 group, compound 2 group, compound 5 group, compound 31 group, compound 131 group, compound 142 group, compound 171 group, compound B group and compound C group, with 8 mice per group. Mice in the solvent control group were subjected to intragastric administration of 0.5% CMC-Na once daily; mice in compound 1 group, compound 2 group, compound 5 group, compound 31 group, compound 131 group, compound 142 group, compound 171 group, compound B group and compound C group were subjected to intragastric administration of a suspension of a compound in 0.5% CMC-Na once daily. On Tuesday and Thursday each week, tumor volumes and body weight of the mice were measured, and the nude mice were sacrificed on day 21 of administration.

[3] = tested on: phosphorylated ERK (pERK) level in H358 cells; experiment: pERK level assay by western blot in H358 cells; format: cell-based; details: overnight incubation, same concentration, FIG. 1
Procedure: H358 cells were plated on to a 24-well plate at 2×10^5 cells/well. Serially diluted compounds including AMG510, MRTX849, compound 142 and compound 171 were added. After overnight incubation, cells were lysed, and proteins were quantified and subjected to gel electrophoresis.

[4] = Homo sapiens, NCI-H358, 72 h, 96-well ultra-low attachment plate, Cell Titer Glow
[5] = male, ICR, mouse, plasma, iv, 2 mg/kg
[6] = male, ICR, mouse, plasma, iv, 2 mg/kg, read-out: Cmax
[7] = male, ICR, mouse, plasma, iv, 2 mg/kg, read-out: Tmax
[8] = male, ICR, mouse, plasma, po, 10 mg/kg, 0.5% CMC-Na suspension
[9] = male, ICR, mouse, plasma, po, 10 mg/kg, 0.5% CMC-Na suspension, read-out: Cmax
[10] = male, ICR, mouse, plasma, po, 10 mg/kg, 0.5% CMC-Na suspension, read-out: Tmax
[11] = po, 10 mg/kg, 0.5% CMC-Na suspension

pIC50 (H358 cells; [4]) | pIC50 (H358 cells; Homo sapiens, NCI-H358, 72 h) | AUC(0-t) [1, 5] | clearance [1, 5] | half-life [1, 5] | Cmax [1, 6] | Tmax [1, 7] | Vd [1, 5] | AUC(0-t) [1, 8] | half-life [1, 8] | Cmax [1, 9] | Tmax [1, 10] | F [1] | Structure (SMILES) | inhibition at 1 µM (pERK level in H358 cells) | Anti-tumor effect (regression) [2] | further results
> 6.52 | 8.60 | 52000 ng·h/mL | 0.642 mL/min/kg | 3.31 h | 13100 ng/mL | 0.083 h | 0.187 L/kg | 46000 ng·h/mL | 3.89 h | 6730 ng/mL | 2 h | 17.7% | C=CC(=O)N1CC2(CCN(c3nc(N4CC(N5CCC5)C4)nc4c(OCC(F)(F)F)c(-c5c(C)ccc6[nH]ncc56)c(C5CC5)cc34)CC2)C1 [Compound 142] | > 90% | 35% regression | inhibition of the phosphorylated ERK (pERK) level in cells compared with AMG510 and MRTX849 [3]: stronger inhibition
> 6.52 | 8.85 | 26500 ng·h/mL | 1.26 mL/min/kg | 4.85 h | 4910 ng/mL | 0.083 h | 0.505 L/kg | 35700 ng·h/mL | 3.93 h | 3320 ng/mL | 2 h | 26.9% | C=CC(=O)N1CC2(CCN(c3nc(N4CC(N5CCCC5)C4)nc4c(OCC(F)(F)F)c(-c5c(C)ccc6[nH]ncc56)c(C5CC5)cc34)CC2)C1 [Compound 171] | > 90% | 38% regression | 
 |  |  |  |  |  |  |  |  |  |  |  | 24.6% | C=CC(=O)N1CC2(CCN(c3nc(N4CC(N(C)C)C4)nc4c(OCC(F)(F)F)c(-c5c(C)ccc6[nH]ncc56)c(C=C)cc34)CC2)C1 [Compound C, reference compound] |  | 8% regression | Inhibition rate (%) of pERK level (pERK level in H358 cells; compound 1 μM): +++ (+++ indicates an inhibition rate greater than 90%.); pIC50 (H358 cells; 96-well ultra-low attachment plate, Cell Titer Glow): > 6.52; pIC50 (H358 cells): 8.29; Cl ([1]; iv, 2 mg/kg): 1.65 mL/min/kg; Cmax ([1]; iv, 2 mg/kg): 3210 ng/mL; Tmax ([1]; iv, 2 mg/kg): 0.083 h; Vss ([1]; iv, 2 mg/kg): 0.481 L/kg; t1/2 ([1]; iv, 2 mg/kg): 4.02 h; Cmax [1, 11]: 3110 ng/mL; Tmax [1, 11]: 0.5 h; t1/2 [1, 11]: 3.38 h
